Molecules are shown by their SMILES. Several values for one entry are separate records, joined by “and”; a condition that tells them apart may be missing. Identical values can stand only once. Marks after values point to notes of the source that are not given here. Where only a bound is given, the exact number is not on record here.

The test system of series [1] is K. pneumoniae RamR^mut (K124*stop). Nature of the series: MIC of antibiotics with and without EPI (REMA), RamR mutant. The note with it: for Minimum Inhibitory Concentration: K. pneumoniae RamR^mut. The class given is cell-based, Klebsiella pneumoniae. The method in brief: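 K. pneumoniae ATCC 43816 carrying single chromosomal acrB or ramR mutations introduced by allelic exchange, diluted to OD600 = 0.001 in CAMHB with EPI at final 100 µM. Incubated 37 °C up to 20 h; viability by resazurin fluorescence (Ex 530/Em 590 nm).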

The test system of series [2] is K. pneumoniae AcrB^V448E RamR^mut. Kind of series: MIC of antibiotics with and without EPI (REMA), double mutant. Format: cell-based, Klebsiella pneumoniae. The conditions noted are these: K. pneumoniae AcrB^V448E RamR^mut. How it is done:
MIC experiments were carried out according to the CLSI guidelines (CLSI [2023]). Overnight cultures were diluted to an OD600 = 0.001 in CAMHB followed by addition of efflux pump inhibitors (EPIs) at a final concentration of 100 µM. […] Plates were incubated at 37 °C for up to 20 h. Bacterial viability was evaluated using the resazurin microtitre assay (REMA) and measured by fluorescence using a Tecan Spaert multimode plate reader (Ex: 530 nm Em: 590 nm). MICs were defined as the concentration that prevented 90% of resazurin turnover compared to the non-treated bacteria.

A further series relates to K. pneumoniae ATCC 43816. Kind of series: K. pneumoniae mouse lung infection (lung CFU). Format: in vivo, Klebsiella pneumoniae. The note with it: for reduction in lung bacterial load compared to untreated mice: at 24 h. An excerpt:
Mice experiments complied with national, institutional and European regulations and ethical guidelines, were in accordance with ARRIVE guidelines 2.0 and were approved by the Institutional Animal Care and Use Committee (animal facility agreement D59-350009, Institut Pasteur de Lille, protocol reference: APAFIS#25953, 2020060916081461_v2). Six to eight weeks old female C57BL/6JRj mice were purchased from Janvier Laboratories (Saint Berthevin, France), allocated into experimental groups in a random fashion and maintained in individually ventilated cages (Innorack® IVC Mouse 3.5) and handled in a vertical laminar flow biosafety cabinet (Class II Biohazard, Tecniplast). All infections were performed in an animal biosafety level 2 facility.
Inoculum was prepared as follows. Tryptic Soy broth was inoculated with K. pneumoniae from a frozen stock and grown overnight at 37 °C without shaking. 1 mL of this overnight bacterial culture was transferred to a warm fresh Tryptic Soy broth and grown at 37 °C until it reached the mid-log. Cells were pelleted, washed with PBS and resuspended to the appropriate concentration.
22 h post-infection, mice were treated with BDM91288 (5) (30 mg/kg, 200 µL, formulated in 10% hydroxypropyl-beta-cyclodextrine (Kleptose HP; Roquette) at 3 mg/mL) by intragastric route. […] At 4 h or 24 h post antibiotic treatment, mice were euthanized by cervical dislocation. Lungs were collected in 1 mL of PBS, homogenized with a T-25 digital Ultraturrax® (IKA). CFU counts were determined by plating serial dilutions onto Tryptic Soy agar plate.

A further series can be described thus: Solubility in PBS pH 7.4. Format: physicochemical. The conditions noted are these: PBS pH 7.4, pH 7.4, aqueous buffer, thermodynamic from solid. The procedure: 0.5 mg of BDM91288 (5) were dissolved either in 1235 μL of PBS pH 7.4 (triplicate) or in 1235 µL of DMSO (triplicate twice). After gently stirring 24 h at room temperature, the solutions were centrifuged for 5 min at 4000 rpm and filtered over 0.45-μm filters (Millex-LH Millipore), excepted one of the DMSO triplicate. Then, 2 µL of each solution was diluted in 998 µL of MeOH were transferred in matrix tubes for LC-MS/MS analysis. The solubility was determined according to the following formula: Solubility (µM) = [AUC(filtered PBS)/AUC(not filtered DMSO)] × 1000.

Series [3] can be described thus: Toxicity in mice after a single oral administration. The conditions noted are these: over a 24-h period after a single oral administration at 30 mg/kg. Format: in vivo. The procedure: For these reasons, this compound was selected for multi-organ pharmacokinetic (PK) studies to measure its temporal distribution and tissue concentration in female mice (CD-1), following a single oral administration of 30 mg/kg (Fig. EV3A; Appendix Table S3).

Series [4] can be described thus: Pharmacokinetics in mice in combination with levofloxacin (plasma, lung after BAL, ELF). The class given is in vivo, female CD-1 mice. The note with it: female, CD-1, mouse, ELF and plasma, oral; higher than plasma; read-out: ELF exposure (AUC) relative to that measured in the plasma. How it is done: The concentration of compounds in plasma, lungs and ELF was measured after 2 h, 6 h and 24 h. […] After rodent sacrifice by cervical dislocation, bronchoalveolar lavage (BAL) fluid was collected using a cannula inserted into the trachea. 1 mL of PBS was introduced in lungs via the cannula and the collected BAL fluid was centrifuged (5 min, 3500 rpm, 4 °C). Supernatants were removed, their volume recorded, and samples stored at −80 °C until analysis.
Plasma and BAL fluid samples were thawed on ice.
The concentration of compound in ELF, [cpd]ELF, was calculated as follows: cpdELF=cpdBALxVBAL/VELF where [cpd]BAL is the measured concentration of compound in BAL fluid supernatant, VBAL and VELF, the volume of aspired BAL and the calculated volume of ELF, respectively.
The volume of ELF was calculated as follows: VELF=VBALxUreaBAL/UreaPlasma where VELF represents the apparent volume of ELF, VBAL is the volume of aspired BAL, and [Urea]BAL and [Urea]Plasma are concentration of urea in BAL fluid or plasma, respectively.
Concentrations of urea in plasma and in BAL fluid supernatant was measured using the UREA Nitrogen (BUN) colorimetric detection kit, according to the supplier procedural guidelines (Invitrogen).

Turning to `C[C@H]1COc2c(N3CCN(C)CC3)c(F)cc3c(=O)c(C(=O)O)cn1c23` [Levofloxacin], the “Minimum Inhibitory Concentration” value was 0.08^# mg/L in series [1] (+ 100 µM 1'); 0.05^# mg/L in series [1] (+ 100 µM 5); 0.04^# mg/L in series [1] (+ 100 µM PAβN); 1.28 mg/L in series [2] (+ 100 µM 1'); 1.28 mg/L in series [2] (+ 100 µM 5); 0.05^# mg/L in series [2] (+ 100 µM PAβN). Also, in series [2] (No EPI), the “Minimum Inhibitory Concentration” value is 1.28 mg/L. In addition, the MIC in series [1] (Klebsiella pneumoniae, read-out: Minimum Inhibitory Concentration) is 0.64 µg/mL. In addition, the “CFU counts, lung, single animals” value with K. pneumoniae ATCC 43816 (4h post-treatment, levofloxacin 10mg/kg) is 2830 CFU and 567 CFU and 1330 CFU and 3170 CFU and 3670 CFU and 1830 CFU and 4670 CFU and 7670 CFU and 717 CFU and 3330 CFU and 2170 CFU and 833 CFU and 2000 CFU and 500 CFU and 450 CFU and 150 CFU; in the series on K. pneumoniae ATCC 43816 (4h post-treatment, levofloxacin 50mg/kg), 200 CFU and 50 CFU and 267 CFU and 16.7 CFU and 117 CFU and 350 CFU and 583 CFU and 450 CFU and 833 CFU and 1000 CFU and 133 CFU and 667 CFU and 1330 CFU and 1500 CFU and 1170 CFU and 367 CFU; in the series on K. pneumoniae ATCC 43816 (24h post-treatment, levofloxacin 10mg/kg) it was 117 CFU and 83.3 CFU and 15300 CFU and 26700 CFU and 7500 CFU and 1000 CFU and 6330 CFU and 9170 CFU; in the series with K. pneumoniae ATCC 43816 (24h post-treatment, levofloxacin 50mg/kg), 16.7 CFU and 167 CFU and 66.7 CFU and 50 CFU and 100 CFU and 83.3 CFU. Also, the figures for the “reduction in lung bacterial load compared to untreated mice” value with K. pneumoniae ATCC 43816 (single dose 10 mg/kg i.p.) and in the series with K. pneumoniae ATCC 43816 (single dose 50 mg/kg i.p.) were 3.2 log and 5.9 log, respectively.

In the case of `Clc1cc2cc(N3CCNCC3)ccc2nc1N1CCNCC1` [compound 5], the “EPI mediated antibiotic boosting, in words” value in series [1] (K. pneumoniae-RamR^mut, Table 2) was “maintained”. For the same compound, in the series “Solubility in PBS pH 7.4”, the solubility at 24 h is ≥ 1000 µM. Further, the toxicity in mice entry in series [3] is recorded as “no toxicity was observed”. The Kp in series [4] is 2.3. In addition, the “CFU counts, lung, single animals” value in the series on K. pneumoniae ATCC 43816 (4h post-treatment, BDM91288 + levofloxacin 10mg/kg) is 250 CFU and 1500 CFU and 667 CFU and 267 CFU and 483 CFU and 1830 CFU and 1670 CFU and 500 CFU and 1170 CFU and 517 CFU and 833 CFU and 383 CFU and 650 CFU and 550 CFU and 450 CFU and 2670 CFU and 3170 CFU and 1000 CFU and 583 CFU; in the series on K. pneumoniae ATCC 43816 (4h post-treatment, BDM91288 alone) it was 433000 CFU and 400000 CFU and 533000 CFU and 817000 CFU and 13800000 CFU and 2670000 CFU and 5170000 CFU and 2330000 CFU and 550000 CFU and 700000 CFU and 1830000 CFU and 250000 CFU and 1030000 CFU and 600000 CFU and 1120000 CFU and 317000 CFU and 1380000 CFU and 167000 CFU and 2500000 CFU and 450000 CFU and 267000 CFU and 567000 CFU; in the series with K. pneumoniae ATCC 43816 (24h post-treatment, BDM91288 + levofloxacin 10mg/kg) it was 16.7 CFU and 1500 CFU and 117 CFU and 200 CFU and 850 CFU and 517 CFU and 350 CFU and 683 CFU and 283 CFU; in the series on K. pneumoniae ATCC 43816 (24h post-treatment, BDM91288 alone), 98300 CFU and 4500000 CFU and 26700000 CFU and 31700000 CFU and 28300000 CFU and 1650000 CFU and 18300000 CFU and 13300000 CFU and 10000000 CFU and 12300000 CFU and 6170000 CFU and 7000000 CFU and 20000000 CFU and 483000 CFU and 16700000 CFU. The “impact on the K. pneumoniae bacterial load in the lungs” value in the series on K. pneumoniae ATCC 43816 (single dose 30 mg/kg p.o., alone) is recorded as “no impact”.

One may read the solubility as the dissolved amount per volume that the medium holds. Read a low solubility as little dissolved substance.

Values taken from publication PMC10897476, “Pyridylpiperazine efflux pump inhibitor boosts in vivo antibiotic efficacy against K. pneumoniae” (EMBO Molecular Medicine, 2023).
